The source of these data is patent US20250120425A1, “Combinations of Ketogenic Supplements for Rapid and Sustained Blood Ketone Levels in Dieters and Patients” (priority 2021, published 2025).

Series [1] can be described thus: Blood βHB levels after single oral administration of ketogenic compounds in human subjects. Here is the method: Table 1 is data depicting blood BHB levels of 4 male subjects with an average weight of 76 kg in a fasted state that received 5.5 grams of buffered (D) βHB together with 4.5 grams of (D)-1,3BD, 328 mg of Na+ in the form of NaHCO3 and 500 mg of K+ in the form of KHCO3, at 15, 30, 45 and 60 minutes after oral administration. […] That compound is an ester formed by reacting (D)-3-hydroxybutyrate and (D)-1,3-butanediol.
Table 2 is data depicting blood βHB levels after a single administration of 5.5 grams of buffered (D) βHB together with 4.5 grams of (D)-1,3BD, 328 mg of Na+ in the form of NaHCO3 and 500 mg of K+ in the form of KHCO3 in a fasted 70 kg subject who was following a strict ketogenic diet and keto adapted due at 15, 30, 45 and 60 minutes after oral administration.
Table 3 is data depicting blood BHB after a single administration of 10 grams of buffered (D) βHB acid with 328 mg of Na+ in the form of NaHCO3 and 500 mg of K+ in the form of KHCO3 in a fasted 75 kg subject and two fasted 65 kg female subjects at 15, 30, 45, 60 and 90 minutes after administration.
FIG. […] The total dose of 60 grams was administered 3 hours after a meal. […] Those esters are typically administered after an overnight fast on an empty stomach. […] FIG. 5 also includes blood samples for 2 esters of (D)-BHB. The first was from HVMN and consisted of […] of ester (2 commercially available 30 gram bottles). The second was the ester KE4 from KetoneAid and contained 60 net grams (2 commercially available 30 gram bottles). The choice of 60 grams of active ester was based on dosing protocols for elite athletes in the paper “Nutritional Ketosis Alters Fuel Preference and Thereby Endurance in Elite Athletes” Cell Metabolism Cox et al. 2016.

The conditions of series [2]: human, in vivo; cited from earlier work.

For the compound `C[C@@H](O)CC(=O)O` [10 g HB, (D)-beta-hydroxybutyrate], the “effectiveness at raising blood levels of (D)-βHB, pure (D) form versus racemic” value in series [1] (human, in vivo) was “more than twice as effective”.

As for `CC(O)CCO` (stereo not shown) [(D)-1,3BD, (D)-1,3-butanediol], the “serum level of (D)-beta-hydroxybutyrate reached” value in series [1] (10 grams, 75 kg person) was found to be 0.9 mmol. Moreover, in series [1] ((D) enantiomer compared with the racemic form), the “effectiveness at raising serum levels of (D)-beta-hydroxybutyrate” value is on record as around 3 times. For the same compound, the “mean blood BHB level” value stood at 0.0 in series [1] (Table 4: 10 grams single administration, 72 kg fasted subject, T + 0); 0.6 in series [1] (Table 4: 10 grams, 72 kg fasted male, +15 Min); 0.9 in series [1] (Table 4: 10 grams, 72 kg fasted male, +30 Min); 0.9 in series [1] (Table 4: 10 grams, 72 kg fasted male, +45 Min); 0.5 in series [1] (Table 4: 10 grams, 72 kg fasted male, +60 Min); 0.3 in series [1] (Table 4: 10 grams, 72 kg fasted male, +90 Min). Besides, in series [1] (for any given weight), the “effectiveness at raising blood levels of (D)-βHB, pure (D) form versus racemic” value is given as “more than twice as effective”. In addition, the “ketogenic power compared with the free acid (D)-βHB” value in series [1] (gram to gram basis) is reported as “the liver. On a gram to gram basis, it is a more powerful”. Besides, the “ketogenic power relative to the ketone ester” value in series [1] (gram to gram basis) is ~90% as powerful as the previously mentioned ketone ester.

As to `C[C@@H](O)CCOC(=O)C[C@@H](C)O` [(D)-3-hydroxybutyl-(D)-3-hydroxybutyrate], the “average serum increase for βHB” value in series [2] is listed as 1.0 mmol/10 grams.
